In series [1] the test system is eyelid ptosis caused by reserpine. Put plainly: eyelid ptosis test (antagonism of reserpine, anti-depressant activity). The format is in vivo, rats. The settings on record: 1 h before reserpine 1 mg/kg i.p., read 4 h after reserpine, percent of controls receiving reserpine only. The procedure:
The anti-depressant activity was determined by the eyelid ptosis test codified by Rubin, J. Pharm. Exp. Ther. Vol. 120 (1957), p. 125. […] The eyelid ptosis test is used as a quantitative evaluation of the animal's condition but the antagonism is equally exerted on all the neuro-depressive symptoms of reserpine: immobility, […], hypothermia,myosis, etc. […] The results of Table I are expressed as percent of ptosis compared to the controls receiving reserpine only.

Series [2] is described as follows: acute toxicity determination. The settings on record: mouse, in vivo, ip; Rockland mice 18-22 g, intraperitoneal, observed for 7 days; read-out: LD50 (50% of animals died).
The nature of series [3]: solubility in water (product description). In kind it is physicochemical. As to conditions: qualitative.

Broadly, the LD50 is the dose expected to kill half of the subjects tested.

Turning to `CN(C)CCC1=Cc2ccccc2N(C)c2ccccc21` [5-methyl-10-(β-dimethylaminoethyl)-dibenzo (b,f) azepine], the “% of ptosis” value in series [1] (2 mg/kg i.p.) is given as 100%; in series [1] (5 mg/kg i.p.) it was 59%; in series [1] (10 mg/kg i.p.), 37%; in series [1] (20 mg/kg i.p.), 30%. For the same compound, in series [2], the LD50 at 168 h was around 50 mg/kg. Further, the solubility in water result in series [3] is “insoluble in water”.

Turning to `CNCCC1=Cc2ccccc2N(C)c2cc(Cl)ccc21` [fumarate of 7-chloro-5-methyl-10-(β-monomethylaminoethyl)-dibenzo (b,f) azepine], the solubility in water result in series [3] is given as “slightly soluble in water”.

For the compound `CNCCC1=Cc2ccccc2N(C)c2ccccc21.Cl` [5-methyl-10(β-monomethylaminoethyl)-dibenzo (b,f) azepine hydrochloride], the “% of ptosis” value in series [1] (1 mg/kg i.p.) stood at 100%; in series [1] (2 mg/kg i.p.), 72%; in series [1] (5 mg/kg i.p.), 50%; in series [1] (10 mg/kg i.p.) it was 33%; in series [1] (20 mg/kg i.p.), 11%. In addition, in series [2], the 50% lethal dose (LD50) at 168 h was around 75 mg/kg. In addition, the solubility in water result in series [3] was “insoluble in ether and water”.

With `CN(C)CCC1=Cc2ccccc2N(C)c2ccc(Cl)cc21` [8-chloro-5-methyl-10-(β-dimethylaminoethyl)-dibenzo(b,f)azepine], the solubility in water entry in series [3] is on record as “insoluble in water”.

With `CN(C)CCC1=Cc2ccccc2N(C)c2cc(Cl)ccc21` [7-chloro-5-methyl-10-(β-dimethylaminoethyl)-dibenzo (b,f) azepine], the solubility in water result in series [3] is given as “insoluble in water”.

Source of the values: US3979515A, “Novel dibenzo(b,f)azepines as thymoanaleptics” (Roussel-UCLAF, priority 1969, dated 1976).
